The source made the active and inactive calls. The calls are words filed in the database; no cut-off is given here.
How the values were obtained:
[1] = molecular target: Serine/threonine-protein kinase Chk1 (Homo sapiens) (UniProt O14757); assay: CHEK1 Invitrogen Lab (UK) kinase screen (BI); settings: Compound concentration 1.0 uM
[2] = molecular target: Ribosomal protein S6 kinase alpha-5 (Homo sapiens) (UniProt O75582); assay: RPS6KA5 Invitrogen Lab (UK) kinase screen (BI); settings: Compound concentration 1.0 uM
[3] = molecular target: Beta-1 adrenergic receptor (Homo sapiens) (UniProt P08588); settings: Compound concentration 10.0 uM
[4] = molecular target: Muscarinic acetylcholine receptor M1 (Homo sapiens) (UniProt P11229); settings: Compound concentration 10.0 uM
[5] = molecular target: MAP kinase-activated protein kinase 3 (Homo sapiens) (UniProt Q16644); assay: MAPKAPK3 Invitrogen Lab (UK) kinase screen (BI); settings: Compound concentration 1.0 uM
[6] = molecular target: Serine/threonine-protein kinase 3 (Homo sapiens) (UniProt Q13188); assay: STK3 Invitrogen Lab (UK) kinase screen (BI); settings: Compound concentration 1.0 uM
[7] = molecular target: Sodium-dependent dopamine transporter (Homo sapiens) (UniProt Q01959); assay: DATRANS/HUM Eurofins SafetyScreen44 (BI); settings: Compound concentration 10.0 uM
[8] = molecular target: 5-hydroxytryptamine receptor 3A (Homo sapiens) (UniProt P46098); assay: 5HT3/H Eurofins SafetyScreen44 (BI); settings: Compound concentration 10.0 uM
[9] = molecular target: Serine/threonine-protein kinase PAK 4 (Homo sapiens) (UniProt O96013); assay: PAK4 Invitrogen Lab (UK) kinase screen (BI); settings: Compound concentration 1.0 uM
[10] = molecular target: cGMP-inhibited 3',5'-cyclic phosphodiesterase 3A (Homo sapiens) (UniProt Q14432); assay: PDE3A Eurofins SafetyScreen44 (BI); settings: Compound concentration 10.0 uM
[11] = molecular target: MAP kinase-activated protein kinase 2 (Homo sapiens) (UniProt P49137); assay: MAPKAPK2 Invitrogen Lab (UK) kinase screen (BI); settings: Compound concentration 1.0 uM
[12] = molecular target: Adenosine receptor A2a (Homo sapiens) (UniProt P29274); assay: A2A/H Eurofins SafetyScreen44 (BI); settings: filed as antagonist, Compound concentration 10.0 uM
[13] = molecular target: Alpha-1B adrenergic receptor (Homo sapiens) (UniProt P35368); settings: Compound concentration 10.0 uM
[14] = molecular target: Delta-type opioid receptor (Homo sapiens) (UniProt P41143); assay: DELTA2/H Eurofins SafetyScreen44 (BI); settings: Compound concentration 10.0 uM
[15] = molecular target: Histamine H1 receptor (Homo sapiens) (UniProt P35367); settings: Compound concentration 10.0 uM
[16] = molecular target: Sodium-dependent dopamine transporter (Homo sapiens) (UniProt Q01959); settings: Compound concentration 10.0 uM
[17] = molecular target: D(2) dopamine receptor (Homo sapiens) (UniProt P14416); assay: D2SH_AGON Eurofins SafetyScreen44 (BI); settings: filed as agonist, Compound concentration 10.0 uM
[18] = molecular target: Serine/threonine-protein kinase Nek1 (Homo sapiens) (UniProt Q96PY6); assay: NEK1 Invitrogen Lab (UK) kinase screen (BI); settings: Compound concentration 1.0 uM
[19] = molecular target: Sodium-dependent serotonin transporter (Homo sapiens) (UniProt P31645); assay: SLC6A4/H Eurofins SafetyScreen44 (BI); settings: filed as antagonist, Compound concentration 10.0 uM
[20] = molecular target: GABA-A receptor; anion channel (Rattus norvegicus) (UniProt O09028+P15431+P18506+P18508+P19969+P20236+P23574+P23576+P28471+P28473+P30191+P62813+P63079+P63138+Q91ZM7+Q9ES14); assay: BZD/CENTR/R Eurofins SafetyScreen44 (BI); assay type: protein-complex assay; settings: Compound concentration 10.0 uM
[21] = molecular target: Beta-1 adrenergic receptor (Homo sapiens) (UniProt P08588); assay: BETA1/HUM Eurofins SafetyScreen44 (BI); settings: Compound concentration 10.0 uM
[22] = molecular target: Neuronal acetylcholine receptor; alpha4/beta2 (Homo sapiens) (UniProt P17787+P43681); assay: N_NEURO_A4B2 Eurofins SafetyScreen44 (BI); assay type: protein-complex assay; settings: filed as agonist, Compound concentration 10.0 uM
[23] = molecular target: Focal adhesion kinase 1 (Homo sapiens) (UniProt Q05397); assay: PTK2 Invitrogen Lab (UK) kinase screen (BI); settings: Compound concentration 1.0 uM
[24] = molecular target: 5-hydroxytryptamine receptor 1A (Homo sapiens) (UniProt P08908); settings: Compound concentration 10.0 uM
[25] = molecular target: Histamine H2 receptor (Homo sapiens) (UniProt P25021); settings: Compound concentration 10.0 uM
[26] = molecular target: Serine/threonine-protein kinase PLK1 (Homo sapiens) (UniProt P53350); assay: PLK1 Invitrogen Lab (UK) kinase screen (BI); settings: Compound concentration 1.0 uM
[27] = molecular target: Prostaglandin G/H synthase 2 (Homo sapiens) (UniProt P35354); assay: COX-2 Eurofins SafetyScreen44 (BI); settings: Compound concentration 10.0 uM
[28] = molecular target: Ephrin type-A receptor 2 (Homo sapiens) (UniProt P29317); assay: EPHA2 Invitrogen Lab (UK) kinase screen (BI); settings: Compound concentration 1.0 uM
[29] = molecular target: Muscarinic acetylcholine receptor M5 (Homo sapiens) (UniProt P08912); settings: Compound concentration 10.0 uM
[30] = molecular target: 5-hydroxytryptamine receptor 1A (Homo sapiens) (UniProt P08908); assay: 5HT1A/H Eurofins SafetyScreen44 (BI); settings: Compound concentration 10.0 uM
[31] = molecular target: B-cell lymphoma 6 protein (Homo sapiens, UniProt P41182); assay: SPR (BCL6), Ontario institute for cancer research
[32] = molecular target: RAC-beta serine/threonine-protein kinase (Homo sapiens) (UniProt P31751); assay: AKT2 Invitrogen Lab (UK) kinase screen (BI); settings: Compound concentration 1.0 uM
[33] = molecular target: Alpha-2C adrenergic receptor (Homo sapiens) (UniProt P18825); settings: Compound concentration 10.0 uM
[34] = molecular target: 5-hydroxytryptamine receptor 2C (Homo sapiens) (UniProt P28335); settings: Compound concentration 10.0 uM
[35] = molecular target: Vasopressin V1a receptor (Homo sapiens) (UniProt P37288); assay: V1A/HUM Eurofins SafetyScreen44 (BI); settings: Compound concentration 10.0 uM
[36] = molecular target: Mitogen-activated protein kinase 14 (Homo sapiens) (UniProt Q16539); assay: MAPK14 Invitrogen Lab (UK) kinase screen (BI); settings: Compound concentration 1.0 uM
[37] = molecular target: Proto-oncogene tyrosine-protein kinase receptor Ret (Homo sapiens) (UniProt P07949); assay: RET Invitrogen Lab (UK) kinase screen (BI); settings: Compound concentration 1.0 uM
[38] = molecular target: Serine/threonine-protein kinase Chk2 (Homo sapiens) (UniProt O96017); assay: CHEK2 Invitrogen Lab (UK) kinase screen (BI); settings: Compound concentration 1.0 uM
[39] = molecular target: D(2) dopamine receptor (Homo sapiens) (UniProt P14416); settings: Compound concentration 10.0 uM
[40] = molecular target: cAMP-dependent protein kinase catalytic subunit alpha (Homo sapiens) (UniProt P17612); assay: PRKACA Invitrogen Lab (UK) kinase screen (BI); settings: Compound concentration 1.0 uM
[41] = molecular target: voltage-gated Na+ channel (site 2) (Rattus norvegicus, UniProt F1LQQ7+O08562+O88420+O88457+P04774+P04775+P08104+P15389+P15390+Q62968); assay: NA+/SITE2/R Eurofins SafetyScreen44 (BI); assay type: protein assay; settings: rat brain, probe [3H]batrachotoxinin, compound concentration 10 uM, read-out: % Ctrl
[42] = molecular target: Rho-associated protein kinase 2 (Homo sapiens) (UniProt O75116); assay: ROCK2 Invitrogen Lab (UK) kinase screen (BI); settings: Compound concentration 1.0 uM

Beta-1 adrenergic receptor (Homo sapiens), sequence (P08588 whole entry, looked up): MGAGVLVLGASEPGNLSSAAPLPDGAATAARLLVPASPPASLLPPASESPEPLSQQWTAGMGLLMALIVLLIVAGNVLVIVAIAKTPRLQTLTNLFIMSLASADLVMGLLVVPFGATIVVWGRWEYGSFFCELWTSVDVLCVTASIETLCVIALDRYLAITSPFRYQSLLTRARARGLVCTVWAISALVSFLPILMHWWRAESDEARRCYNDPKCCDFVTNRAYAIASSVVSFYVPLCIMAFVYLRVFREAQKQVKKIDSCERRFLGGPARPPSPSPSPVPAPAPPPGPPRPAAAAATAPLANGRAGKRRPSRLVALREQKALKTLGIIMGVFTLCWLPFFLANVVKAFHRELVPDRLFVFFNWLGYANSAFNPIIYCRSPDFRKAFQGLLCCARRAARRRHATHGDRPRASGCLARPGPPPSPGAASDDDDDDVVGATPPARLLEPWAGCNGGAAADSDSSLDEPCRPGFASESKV
Sodium-dependent dopamine transporter (Homo sapiens), sequence (Q01959 whole entry): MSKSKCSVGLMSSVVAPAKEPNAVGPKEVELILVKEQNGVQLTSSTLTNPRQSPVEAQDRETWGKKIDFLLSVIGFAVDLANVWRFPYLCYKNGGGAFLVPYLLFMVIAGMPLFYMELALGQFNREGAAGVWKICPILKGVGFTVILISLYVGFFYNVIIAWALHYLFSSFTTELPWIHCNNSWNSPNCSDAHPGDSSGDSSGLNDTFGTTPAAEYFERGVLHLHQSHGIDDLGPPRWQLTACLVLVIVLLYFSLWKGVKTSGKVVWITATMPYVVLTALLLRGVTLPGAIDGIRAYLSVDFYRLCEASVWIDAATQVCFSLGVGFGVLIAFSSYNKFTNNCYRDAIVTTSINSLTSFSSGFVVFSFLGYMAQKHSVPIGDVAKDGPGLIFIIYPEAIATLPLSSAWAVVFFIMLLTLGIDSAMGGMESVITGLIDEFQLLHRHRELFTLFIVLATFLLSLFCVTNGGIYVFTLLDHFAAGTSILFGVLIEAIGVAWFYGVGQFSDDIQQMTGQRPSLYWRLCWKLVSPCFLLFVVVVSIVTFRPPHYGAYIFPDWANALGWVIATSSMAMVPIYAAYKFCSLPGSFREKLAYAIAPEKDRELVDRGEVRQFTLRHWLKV
5-hydroxytryptamine receptor 1A (Homo sapiens), sequence (P08908 whole entry): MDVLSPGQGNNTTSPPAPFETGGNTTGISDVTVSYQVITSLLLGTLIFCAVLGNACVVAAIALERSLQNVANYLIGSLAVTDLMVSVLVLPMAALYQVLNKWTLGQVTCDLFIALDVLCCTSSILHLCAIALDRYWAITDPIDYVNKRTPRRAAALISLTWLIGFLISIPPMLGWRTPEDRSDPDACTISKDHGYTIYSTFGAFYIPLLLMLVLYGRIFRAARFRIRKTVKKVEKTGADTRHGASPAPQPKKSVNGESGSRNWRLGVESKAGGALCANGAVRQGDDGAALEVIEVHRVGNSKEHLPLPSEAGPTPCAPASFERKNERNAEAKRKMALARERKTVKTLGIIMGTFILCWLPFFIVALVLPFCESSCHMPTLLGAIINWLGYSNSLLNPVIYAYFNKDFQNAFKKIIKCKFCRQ
D(2) dopamine receptor (Homo sapiens), sequence (P14416 whole entry): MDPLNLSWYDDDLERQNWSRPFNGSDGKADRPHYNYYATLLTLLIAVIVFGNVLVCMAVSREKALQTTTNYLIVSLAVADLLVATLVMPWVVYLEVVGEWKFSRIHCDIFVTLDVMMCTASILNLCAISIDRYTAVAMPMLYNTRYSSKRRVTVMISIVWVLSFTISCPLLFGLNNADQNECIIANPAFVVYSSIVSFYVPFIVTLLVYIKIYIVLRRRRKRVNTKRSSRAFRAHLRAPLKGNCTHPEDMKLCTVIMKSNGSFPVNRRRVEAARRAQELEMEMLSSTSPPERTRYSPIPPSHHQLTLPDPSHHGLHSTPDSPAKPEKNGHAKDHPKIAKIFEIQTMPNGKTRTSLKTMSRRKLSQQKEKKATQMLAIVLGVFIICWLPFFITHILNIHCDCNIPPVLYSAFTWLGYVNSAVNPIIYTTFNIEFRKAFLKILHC
Alpha-1B adrenergic receptor (Homo sapiens), sequence (P35368 whole entry): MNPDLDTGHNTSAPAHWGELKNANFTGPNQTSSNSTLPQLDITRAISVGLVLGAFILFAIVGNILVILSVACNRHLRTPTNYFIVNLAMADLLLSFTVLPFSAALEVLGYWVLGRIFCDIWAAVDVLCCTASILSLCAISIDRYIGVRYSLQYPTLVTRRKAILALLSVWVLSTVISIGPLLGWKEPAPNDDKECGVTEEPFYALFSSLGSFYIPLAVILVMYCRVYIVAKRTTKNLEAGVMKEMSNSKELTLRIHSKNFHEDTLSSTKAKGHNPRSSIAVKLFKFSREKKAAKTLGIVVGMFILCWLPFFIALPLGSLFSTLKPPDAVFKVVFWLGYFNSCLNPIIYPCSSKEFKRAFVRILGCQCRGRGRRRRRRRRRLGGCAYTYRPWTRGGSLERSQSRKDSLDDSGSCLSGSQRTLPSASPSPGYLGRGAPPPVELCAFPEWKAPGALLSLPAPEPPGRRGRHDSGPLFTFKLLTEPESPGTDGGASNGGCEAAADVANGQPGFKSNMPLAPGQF
Histamine H1 receptor (Homo sapiens), sequence (P35367 whole entry): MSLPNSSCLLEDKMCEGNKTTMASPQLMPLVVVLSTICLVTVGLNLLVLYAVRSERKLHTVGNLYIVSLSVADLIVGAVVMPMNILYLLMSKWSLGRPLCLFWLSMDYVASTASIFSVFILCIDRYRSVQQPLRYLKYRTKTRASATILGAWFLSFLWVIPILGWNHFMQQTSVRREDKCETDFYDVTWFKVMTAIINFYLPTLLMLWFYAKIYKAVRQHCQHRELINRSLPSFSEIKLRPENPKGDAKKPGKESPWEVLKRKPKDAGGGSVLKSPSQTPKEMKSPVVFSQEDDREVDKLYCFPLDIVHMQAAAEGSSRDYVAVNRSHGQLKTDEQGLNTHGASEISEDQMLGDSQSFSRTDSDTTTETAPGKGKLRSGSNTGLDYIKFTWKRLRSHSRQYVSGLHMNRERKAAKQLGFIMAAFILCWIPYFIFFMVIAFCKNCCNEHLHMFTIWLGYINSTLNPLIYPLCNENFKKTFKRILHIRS
Alpha-2C adrenergic receptor (Homo sapiens), sequence (P18825 whole entry): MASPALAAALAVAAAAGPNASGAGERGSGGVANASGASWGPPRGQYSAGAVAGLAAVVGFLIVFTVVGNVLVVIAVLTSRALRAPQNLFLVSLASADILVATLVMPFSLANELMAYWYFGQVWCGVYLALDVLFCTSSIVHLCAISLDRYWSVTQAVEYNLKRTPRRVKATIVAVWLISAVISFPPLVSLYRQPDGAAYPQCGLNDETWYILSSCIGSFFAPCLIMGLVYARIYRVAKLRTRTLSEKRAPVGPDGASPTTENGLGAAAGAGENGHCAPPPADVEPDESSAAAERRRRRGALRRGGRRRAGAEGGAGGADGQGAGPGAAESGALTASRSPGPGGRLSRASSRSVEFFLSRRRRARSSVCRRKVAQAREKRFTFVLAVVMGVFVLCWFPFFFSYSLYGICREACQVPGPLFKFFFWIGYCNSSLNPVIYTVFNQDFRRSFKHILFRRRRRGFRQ
5-hydroxytryptamine receptor 2C (Homo sapiens), sequence (P28335 whole entry): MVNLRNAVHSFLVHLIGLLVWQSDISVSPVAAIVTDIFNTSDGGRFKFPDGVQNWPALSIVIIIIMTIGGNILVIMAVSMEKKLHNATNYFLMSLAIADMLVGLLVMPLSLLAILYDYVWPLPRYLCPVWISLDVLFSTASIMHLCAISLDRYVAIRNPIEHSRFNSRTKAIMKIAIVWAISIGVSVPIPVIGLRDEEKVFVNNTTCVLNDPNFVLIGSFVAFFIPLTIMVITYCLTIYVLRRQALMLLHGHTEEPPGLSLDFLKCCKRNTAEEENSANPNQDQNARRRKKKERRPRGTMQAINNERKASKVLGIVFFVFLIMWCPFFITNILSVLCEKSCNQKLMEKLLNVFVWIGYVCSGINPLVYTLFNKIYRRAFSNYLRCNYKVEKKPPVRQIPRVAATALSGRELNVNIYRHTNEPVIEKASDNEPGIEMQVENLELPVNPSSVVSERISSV
Muscarinic acetylcholine receptor M5 (Homo sapiens), sequence (P08912 whole entry): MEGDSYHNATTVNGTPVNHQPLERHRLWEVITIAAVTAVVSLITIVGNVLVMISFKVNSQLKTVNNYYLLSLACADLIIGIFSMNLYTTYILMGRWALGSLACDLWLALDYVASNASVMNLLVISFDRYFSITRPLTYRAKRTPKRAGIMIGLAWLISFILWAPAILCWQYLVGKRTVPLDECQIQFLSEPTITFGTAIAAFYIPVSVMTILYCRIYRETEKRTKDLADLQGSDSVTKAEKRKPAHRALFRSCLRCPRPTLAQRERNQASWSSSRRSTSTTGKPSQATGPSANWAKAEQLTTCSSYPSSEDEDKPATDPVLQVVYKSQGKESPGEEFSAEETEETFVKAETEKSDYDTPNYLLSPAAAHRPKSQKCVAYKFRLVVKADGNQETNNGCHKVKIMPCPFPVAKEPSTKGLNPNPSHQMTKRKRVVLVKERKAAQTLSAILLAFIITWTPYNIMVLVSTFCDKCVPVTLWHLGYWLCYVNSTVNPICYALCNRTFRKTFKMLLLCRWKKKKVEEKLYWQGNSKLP
Muscarinic acetylcholine receptor M1 (Homo sapiens), sequence (P11229 whole entry): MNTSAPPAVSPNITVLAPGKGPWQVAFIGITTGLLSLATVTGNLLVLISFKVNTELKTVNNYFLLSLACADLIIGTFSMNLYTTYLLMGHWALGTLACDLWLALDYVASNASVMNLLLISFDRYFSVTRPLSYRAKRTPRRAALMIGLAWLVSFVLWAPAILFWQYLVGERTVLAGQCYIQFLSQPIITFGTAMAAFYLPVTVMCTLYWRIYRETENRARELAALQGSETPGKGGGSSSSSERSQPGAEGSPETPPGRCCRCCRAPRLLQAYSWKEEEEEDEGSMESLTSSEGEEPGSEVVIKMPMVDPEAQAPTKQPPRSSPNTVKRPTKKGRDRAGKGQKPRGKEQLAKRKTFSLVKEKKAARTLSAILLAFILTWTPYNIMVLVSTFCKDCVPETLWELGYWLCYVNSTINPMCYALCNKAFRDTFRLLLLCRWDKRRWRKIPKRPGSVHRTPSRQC

residual activity [1]: 91%
residual activity [2]: 103%
inhibition [3]: -5.19%
inhibition [4]: 12.9%
residual activity [5]: 99%
residual activity [6]: 100%
residual activity [9]: 82%
residual activity [11]: 91%
inhibition [13]: 9.69%
inhibition [15]: 2.93%
inhibition [16]: 12.2%
residual activity [18]: 98%
residual activity [23]: 90%
inhibition [24]: 22.9%
inhibition [25]: 9.74%
residual activity [26]: 100%
residual activity [28]: 99%
inhibition [29]: -7.06%
Kd [31]: 2.57 nM (active)
residual activity [32]: 90%
inhibition [33]: 3.4%
inhibition [34]: -2.05%
residual activity [36]: 88%
residual activity [37]: 95%
residual activity [38]: 93%
inhibition [39]: 1.86%
residual activity [40]: 99%
residual activity [42]: 97%
Compound: CNC(=O)COc1cc2cc(Nc3nc(N4CCC(C(=O)N(C)C)CC4)ncc3Cl)cc(OC)c2n(C)c1=O
residual activity [7]: 101%
residual activity [8]: 95%
residual activity [10]: 142%
residual activity [12]: 86%
residual activity [14]: 85%
residual activity [17]: 101%
residual activity [19]: 105%
residual activity [20]: 125%
residual activity [21]: 100%
residual activity [22]: 98%
residual activity [27]: 74%
residual activity [30]: 89%
residual activity [35]: 101%
activity at 10 µM [41]: 84% (not active)

Reference: ChEMBL document CHEMBL5303764, “Data for DCP probe BI-3812” (2023)
